Laboratory results as given in US11179435B2, “Hangover alleviating composition containing conjugate of sesamol and peptide as active ingredient” (CAREGEN CO., LTD., priority 2017, dated 2021).
Starred links: 1 amine or outer side, 2 acyl side, 3 side chain; linkers in the order of their positions; H or OH if unused. No end group written: not given here. Suc = O=C(CCC(=O)[*:2])[*:1]

Key:
Type in all cases: cell-based, human
[1] = test system: aldehyde dehydrogenase (ALDH); assay: ALDH activity assay in HepG2 cells treated with conjugate; conditions: 50 μM or 100 μM, 24 hours, compared to untreated control group
Method: Alcohol was converted to acetaldehyde by alcohol dehydrogenase (ADH), an alcohol degrading enzyme, and the converted acetaldehyde was converted and degraded to acetate by aldehyde dehydrogenase (ALDH). Therefore, in order to confirm the effect of increasing the activity of ALDH involved in the alcohol degradation process, liver carcinoma cells were treated with the two types of conjugates of the sesamol and the peptides prepared in [Preparation Example 2], respectively, and then the ALDH activity assay was performed.
Specifically, liver hepatocellular carcinoma (HepG2) cells, which were human liver carcinoma cells, were inoculated into a 6-well plate at a density of 4×10^5 cells/well and then incubated overnight. Thereafter, the two types of conjugates of the sesamol and the peptides prepared in [Preparation Example 2] were treated at a concentration of 50 μM or 100 μM, respectively, and incubated for 24 hours, and the cells were collected and then the ALDH activity was analyzed using an ALDH activity assay kit (abcam, ab155893). Meanwhile, a positive control group was treated with 5 μM sulfolaphane.
For the ALDH activity assay, each of the collected cells was treated with an ALDH activity assay buffer included in the kit, and then lysed with a homogenizer under ice. […] Thereafter, the ALDH activity was calculated using the following [Equation 1]. […]

ADH4 = assay: RT-PCR mRNA expression in HepG2 cells; conditions: 10 μM or 50 μM, 6 hours, compared with untreated control group
Method: (§1) In order to confirm an effect of increasing the expression of ADH and ALDH involved in the alcohol degradation process, liver carcinoma cells were treated with the two types of conjugates of the sesamol and the peptides prepared in [Preparation Example 2], respectively, and then RT-PCR was performed.
(§2) Specifically, HepG2 cells were inoculated in a 6-well plate at a density of 4×10^5 cells/well, and then incubated overnight. Thereafter, the two types of conjugates of the sesamol and the peptides prepared in [Preparation Example 2] were treated at a concentration of 10 μM or 50 μM, respectively, and incubated for 6 hours, and the cells were collected. Thereafter, the total RNA was isolated from the collected cells according to a manufacturer's protocol using Trizol (Invitrogen, USA), and then 1 μg of the isolated RNA was synthesized to cDNA according to a manufacturer's protocol using a cDNA synthesis kit (Intron, Korea). The cDNA was subjected to PCR using primers shown in Table 2 below, and then electrophoresed on a 5% agarose gel to confirm mRNA expression levels of ADH4, ALDH1, and ALDH2.

ALDH1 = assay: RT-PCR mRNA expression in HepG2 cells; conditions: 10 μM or 50 μM, 6 hours, compared with untreated control group
Method: as §1, §2

ALDH2 = assay: RT-PCR mRNA expression in HepG2 cells; conditions: 10 μM or 50 μM, 6 hours, compared with untreated control group
Method: as §1, §2

## SEQ ID NO: 1: Sesamol linked via succinyl linker to the N-terminus of peptide SIPCKLQSG (SEQ ID NO: 1) ({sesamol-Suc}-SIPCKLQSG)
[1]
  ALDH activity: increased in a concentration-dependent manner
ADH4
  mRNA expression of ADH4: significantly increased
ALDH1
  mRNA expression of ALDH1: significantly increased
ALDH2
  mRNA expression of ALDH2: significantly increased
